As usually defined, the IC50 is the point on the concentration scale where inhibition reaches its midpoint. A low value points to greater potency in that assay.

SMILES strings stand for the structures. Structures can show the parent of a compound that is named as a salt.

The target of the test is T1, acetylcholinesterase (Mus musculus, UniProt P21836).
T1 construct: The mouse brain was homogenised by means of a 5-fold amount of a 100 mM phosphate buffer (pH 8.0) to prepare an enzyme sample; from tissue; host or cells: brain of male ddY mice, 5 to 7 weeks old (Japan SLC)
T1 sequence (P21836 32-614): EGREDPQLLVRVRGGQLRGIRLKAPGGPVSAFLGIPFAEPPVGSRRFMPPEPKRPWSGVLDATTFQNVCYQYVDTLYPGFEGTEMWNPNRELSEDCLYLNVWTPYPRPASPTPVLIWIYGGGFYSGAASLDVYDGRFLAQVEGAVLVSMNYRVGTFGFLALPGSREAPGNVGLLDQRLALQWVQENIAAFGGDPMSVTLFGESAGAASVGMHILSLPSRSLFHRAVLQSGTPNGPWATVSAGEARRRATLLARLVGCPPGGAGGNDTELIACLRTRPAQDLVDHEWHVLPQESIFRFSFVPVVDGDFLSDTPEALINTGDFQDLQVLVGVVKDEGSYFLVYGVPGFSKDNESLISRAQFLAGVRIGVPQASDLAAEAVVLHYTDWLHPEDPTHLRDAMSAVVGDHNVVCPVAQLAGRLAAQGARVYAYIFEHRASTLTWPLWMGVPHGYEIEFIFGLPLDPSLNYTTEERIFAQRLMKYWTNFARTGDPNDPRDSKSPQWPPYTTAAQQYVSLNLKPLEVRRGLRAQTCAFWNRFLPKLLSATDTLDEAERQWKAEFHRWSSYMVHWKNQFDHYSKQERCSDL
The test is described as follows: Assay of acetylcholinesterase inhibitory activity (Elman's method, mouse brain homogenate). It counts as biochemical.
With `CCc1ccc2c(C(=O)CCC3CCN(Cc4ccccc4)CC3)cn(C)c2c1` [1-16], the IC50 was determined as 4 nM.
The value for `Cn1cc(C(=O)CCC2CCN(Cc3cccc(F)c3)CC2)c2cc(F)ccc21` [1-315, 1-Methyl-3-{3-[1-(3-fluorobenzyl)-4-piperidyl]propionyl}-5-fluoroindole oxalate] was 2.3 nM; that for `Cc1ccc2c(c1)c(C(=O)CCC1CCN(Cc3ccccc3)CC1)nn2C` [2-8] was 13 nM.
`Cn1nc(C(=O)C=CC2CCN(Cc3ccccc3)CC2)c2c(Cl)cccc21` [2-23] displayed an IC50 of 11 nM.
The value for `Cn1nc(C(=O)CCC2CCN(Cc3ccccc3)CC2)c2c(Cl)cccc21` [2-24] was 10 nM.
The value for `Cn1cc(C(=O)CCC2CCN(Cc3ccccc3)CC2)c2ccccc21` [Compound No. 1-2, 1-Methyl-3-[3-(1-benzyl-4-piperidyl)propionyl]indole] was 3.3 nM; that for `Cn1cc(C(=O)CCC2CCN(Cc3ccccc3)CC2)c2ccccc21` [Compound No. 1-4, 1-Methyl-3-[3-(1-benzyl-4-piperidyl)propionyl]indole oxalate] was 10 nM.
The value for `Cn1cc(C(=O)CCC2CCN(Cc3ccccc3)CC2)c2cc(Cl)ccc21` [Compound No. 1-28, 1-Methyl-3-[3-(1-benzyl-4-piperidyl)propionyl]-5-chloroindole] was 4 nM.
Compound `Cn1cc(C(=O)CCC2CCN(Cc3ccccc3)CC2)c2ccc(Cl)cc21` [Compound No. 1-30, 1-Methyl-3-[3-(1-benzyl-4-piperidyl)propionyl]-6-chloroindole] returned an IC50 of 9 nM.
The value for `Cn1cc(C(=O)CCC2CCN(Cc3ccccc3)CC2)c2cc(F)ccc21` [Compound No. 1-40, 1-Methyl-3-[3-(1-benzyl-4-piperidyl)propionyl]-5-fluoroindole] was 4 nM.
Then `Cn1cc(C(=O)CCC2CCN(Cc3cccc(F)c3)CC2)c2ccccc21` [Compound No. 1-78, 1-Methyl-3-{3-[1-(3-fluorobenzyl)-4-piperidyl]propionyl}indole], with 8 nM.
Compound `Cn1cc(C(=O)CCC2CCN(Cc3cccc(Cl)c3)CC2)c2ccccc21` [Compound No. 1-85, 1-Methyl-3-{3-[1-(3-chlorobenzyl)-4-piperidyl]propionyl}indole hydrochloride] had an IC50 of 6.5 nM.
The compound `Cn1cc(C(=O)CCC2CCN(Cc3cccs3)CC2)c2ccccc21` [Compound No. 1-116, 1-Methyl-3-{3-[1-(2-thienylmethyl)-4-piperidyl]propionyl}indole] showed an IC50 of 10 nM.
`Cn1cc(C(=O)CCC2CCN(Cc3cccc(Cl)c3)CC2)c2cc(Cl)ccc21` [Compound No. 1-304, 1-Methyl-3-{3-[1-(3-chlorobenzyl)-4-piperidyl]propionyl}-5-chloroindole hydrochloride] had an IC50 of 7.5 nM.
The value for `Cn1cc(C(=O)CCC2CCN(Cc3cccc(F)c3)CC2)c2cc(Cl)ccc21` [Compound No. 1-309, 1-Methyl-3-{3-[1-(3-fluorobenzyl)-4-piperidyl]propionyl}-5-chloroindole] was 8.2 nM; that for `Cn1cc(C(=O)CCC2CCN(Cc3cccc(F)c3)CC2)c2cc(F)ccc21` [Compound No. 1-313, 1-Methyl-3-{3-[1-(3-fluorobenzyl)-4-piperidyl]propionyl}-5-fluoroindole] was 2 nM.
The value for `Cn1cc(C(=O)CCC2CCN(Cc3cccc(F)c3)CC2)c2cc(F)ccc21` [Compound No. 1-314, 1-Methyl-3-{3-[1-(3-fluorobenzyl)-4-piperidyl]propionyl}-5-fluoroindole hydrochloride] was 3.4 nM; that for `Cn1nc(C(=O)CCC2CCN(Cc3ccccc3)CC2)c2ccccc21` [Compound No. 2-2, 1-Methyl-3-[3-(1-benzyl-4-piperidyl)propionyl]indazole] was 10 nM.
The value for `Cn1nc(C(=O)CCC2CCN(Cc3ccccc3)CC2)c2ccccc21` [Compound No. 2-3, 1-Methyl-3-[3-(1-benzyl-4-piperidyl)propionyl]indazole hydrochloride] was 12 nM; that for `Cc1ccc2c(C(=O)C=CC3CCN(Cc4ccccc4)CC3)nn(C)c2c1` [Compound No. 2-9] was 14 nM; that for `Cn1nc(C(=O)CCC2CCN(Cc3ccccc3Cl)CC2)c2ccccc21` [Compound No. 2-96, 1-Methyl-3-{3-[1-(2-chlorobenzyl)-4-piperidyl]propionyl}indazole hydrochloride] was 13.9 nM.
On to `Cn1nc(C(=O)CCC2CCN(Cc3cccc(Cl)c3)CC2)c2ccccc21` [Compound No. 2-99, 1-Methyl-3-{3-[1-(3-chlorobenzyl)-4-piperidyl]-propionyl}indazole hydrochloride], for which the IC50 was 31.7 nM.
